Assay results: US9951055B2, “Thiazole-based inhibitors of scavenger receptor BI” (THE BROAD INSTITUTE, INC., priority 2012, dated 2018)
“Also recorded” adds a separate entry of the source. Read-outs that look alike come from different tables or passages of the source.

Legend:
murine SR-BI [1] = biological target: T1, murine SR-BI (Mus musculus, UniProt Q61009); test: DiI-HDL uptake assay with washout; type: cell-based
T1 construct: expressed in transfected cells; host or cells: ldlA[mSR-BI]; (CHO ldlA7 derivative lacking the LDL receptor)
T1 sequence (Q61009 1-509): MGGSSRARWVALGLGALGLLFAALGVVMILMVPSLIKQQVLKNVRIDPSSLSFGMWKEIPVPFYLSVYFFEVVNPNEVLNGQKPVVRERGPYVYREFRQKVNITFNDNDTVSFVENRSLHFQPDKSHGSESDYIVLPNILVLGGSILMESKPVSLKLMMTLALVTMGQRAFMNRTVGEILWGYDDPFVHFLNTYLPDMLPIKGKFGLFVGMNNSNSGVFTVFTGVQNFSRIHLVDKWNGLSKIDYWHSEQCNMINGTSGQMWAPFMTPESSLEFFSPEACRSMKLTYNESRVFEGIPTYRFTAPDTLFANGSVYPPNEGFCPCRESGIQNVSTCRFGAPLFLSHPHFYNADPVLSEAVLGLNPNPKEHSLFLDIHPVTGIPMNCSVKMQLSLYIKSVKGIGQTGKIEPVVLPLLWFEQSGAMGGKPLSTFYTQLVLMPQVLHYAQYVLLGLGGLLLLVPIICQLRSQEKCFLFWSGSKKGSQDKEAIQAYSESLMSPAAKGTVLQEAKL
Method: DiI-HDL Uptake Assay with Washout (SA 5: AID No. 588831)
This is a modification of the primary assay where cells are treated with compound prior to the addition of DiI-HDL but no compound is present during the DiI-HDL treatment period. ldlA[mSR-BI]cells were plated into 384-well plates at 30 μl per well and incubated overnight. Cells were treated with compound for 3 hours, then media were removed and the cells were washed with PBS before fresh lipoprotein-free media (Ham's F12/0.5% fatty acid-free Bovine Serum Albumin [BSA]/25 mM HEPES pH 7.4) was added with […] DiI-HDL. Cells took up the DiI via SR-BI over 3 hours in the absence of compound. After significant uptake of the DiI, the cells became fluorescent. The level of fluorescence correlates with the amount of DiI uptake and can be measured with a standard plate reader. The uptake of lipid (represented by DiI) was inhibited by the compound BLT-1.

SR-BI = biological target: T2, SR-BI (Mus musculus, UniProt Q61009); test: HDL binding assay (Alexa 488 HDL); type: cell-based; set-up: expressed in transfected cells; details: Alexa-488 labeled HDL particles
T2 sequence (Q61009 1-509): T1 sequence (Q61009 1-509)
Method: HDL binding was assessed using Alexa Fluor 488-labeled HDL particles. For this assay, the Alexa 488 dye was covalently bound to apolipoprotein components of the HDL particle via primary amines; thus, no transfer of the fluorophore to cell membranes occurs. In this manner, direct binding of the HDL particles to SR-BI can be measured. As a positive control, BLT-1, which is known to increase binding of HDL to SR-BI, was used at 1 μM (12). It is possible that a compound can reduce binding of HDL to the receptor, and this would lead to a decrease in signal. This assay is used to characterize the mechanism of action of a particular compound; therefore, any outcome in the assay is acceptable. Data were normalized against DMSO and the positive control (1 μM BLT-1) in Genedata Assay Analyzer.

ldlA[mSR-BI] cells = test: Cell cytotoxicity assay (CellTiter-Glo); type: cell-based, Chinese hamster
Method: It is possible that a compound will cause cells to decrease HDL-mediated DiI uptake due to nonspecific consequences of cellular toxicity, representing a second class of false positive hits. The cells were treated with compounds for 3 hours or 24 hours, and then cell viability was measured using the CellTiter-Glo Assay (Promega), a luciferase-based reagent that measures cellular ATP levels. The compounds were tested at different concentrations to determine IC50 values. […] Compounds that were active in the primary assay but toxic below 30 μM at 24 hours (but nontoxic at 3 hours) were still considered. […] Data were normalized against DMSO and the positive control (1 μM BLT-1) in Genedata Assay Analyzer.
All available dry powder samples of the remaining, non-quenching compounds were procured from commercial sources and purities were determined. The compounds obtained were then retested in the primary assay and in the cytotoxicity assays. We wanted to rule out any compounds that were cytotoxic, especially in the 3-hour time span of the primary DiI-HDL uptake assay. Therefore, compounds were tested in ldlA[mSR-BI]cells for cytotoxicity at 3 hours and 24 hours using the CellTiter-Glo assay (Promega) that measures cellular ATP as a marker of cell viability. […] Compounds were screened for inhibition of endocytosis using labeled transferrin, which is known to bind the transferrin receptor, enter cells by clathrin-mediated endocytosis, and move to endosomes before being recycled to the cell surface. The BLT compounds have also been tested for potential interference with endocytosis and show no such activity.

murine SR-BI [2] = biological target: T1, murine SR-BI; test: DiI-HDL uptake assay (primary assay); type: cell-based
Description: The following cell lines were used in this study: • ldlA[mSR-BI] is a Chinese hamster ovary (CHO) cell line that overexpresses murine SR-BI, isoform 1 (NP_058021) and was obtained from the Assay Provider (Krieger Laboratory). This cell line was used for the primary assay and several secondary assays. […] This cell line was obtained from the Assay Provider. Assays DiI-HDL Uptake Assay (Primary Assay AID Nos. 488896, 493194, 540354 588392, 588553, 588548, 588754, 588828, 588833)
ldlA[mSR-BI]cells were plated into 384-well plates at 30 μl per well and incubated overnight. As a measurable surrogate for cholesterol uptake, human HDL particles were treated with the lipophilic fluorescent dye DiI and exposed to ldlA[mSR-BI]cells in lipoprotein-free media (Ham's F12/0.5% fatty acid-free Bovine Serum Albumin (BSA)/25 mM HEPES pH 7.4 plus 10 μg protein/ml DiI-HDL). Cells took up the DiI via SR-BI over 3 hours in the presence of compound. After significant uptake of the DiI, the cells became fluorescent. The level of fluorescence correlates with the amount of DiI uptake and can be measured with a standard plate reader (here a PerkinElmer EnVision plate reader was used). The uptake of lipid (represented by DiI) was inhibited by the positive control compound BLT-1 or with an excess of HDL untreated with DiI. Primary HTS data were analyzed in Genedata Screener Assay Analyzer, and were normalized against DMSO and the positive control (1 μM BLT-1). For the HTS, the average of two replicates was used to rank order activity and to choose compounds for retests. For dose studies, percent (%) activity was determined for each concentration and the concentration response curves (CRCs) were generated with Genedata Condeseo.
To identify novel inhibitors, SR-BI-mediated lipid uptake was measured in an engineered cell line that minimized potential uptake by other mechanisms, including via the LDL receptor (1). ldlA[mSR-BI]cells overexpress murine isoform 1 and selectively take up HDL lipid at similar levels as “has been reported for cultured mouse adrenal cells, perfused organs, and liver, adrenal gland and ovary in vivo” (1). This primary cell-based assay was used in a pilot screen that identified BLTs 1 through 5 (12). The assay was slightly modified from the original protocol of Nieland et al. to increase throughput and to ease automation procedures.

Compound	inhibition after washout at the IC50 concentration (murine SR-BI [1])	IC50 (murine SR-BI [1]; cells pre-treated, washed with PBS, DiI-HDL without compound, read-out: IC50 after washout) [nM]	reversibility of inhibition (murine SR-BI [1]; listed as ML278)	reversibility of inhibition (murine SR-BI [1]; listed as Probe 278)	binding of HDL to SR-BI (SR-BI)	cytotoxicity (ldlA[mSR-BI] cells; listed as ML278)	higher potency than ITX-5061 (murine SR-BI [2])	improved potency over the original hit (murine SR-BI [2]) [fold]	selectivity (murine SR-BI [2])	IC50 (murine SR-BI [2]; read-out: IC50, DiI-HDL uptake) [nM]	reversibility of inhibition (murine SR-BI [1])	cytotoxicity (ldlA[mSR-BI] cells)	reduction in signal (DiI-HDL uptake) (murine SR-BI [2]; 1 μM, positive control in primary HTS) [fold]
COCC(=O)N1CCc2cc(-c3csc(NC(=O)c4cc(OC)cc(OC)c4)n3)ccc21 [Compound 137, 3,5-Dimethoxy-N-(4-(1-(2-methoxyacetyl)indolin-5-yl)thiazol-2-yl)benzamide]	no inhibition	300	reversible inhibitor of HDL uptake	reversible inhibitor	increases binding of HDL to the receptor	no cytotoxicity at 24 hours; also recorded: shows no cytotoxicity	approximately 15 fold	> 20	greater than 1000	2	–	–	–
CCCCCCC1CCCC1=NNC(N)=S (stereo not shown) [BLT-1, reference compound]	–	–	–	–	–	–	–	–	–	–	nonreversible covalent modifier of SR-BI	toxic to cells	> 2.2
